# Results as given in patent US4091006A, “Esters of 3-hydroxyindone compounds” (priority 1975, dated 1978).
# How the values were obtained:
# [1] = system: egg of the two-spotted mite; assay: Mite Ovicide Test; format: in vivo, Tetranychus urticae (Koch); parameters: key to Mite Ova rating: 1: no mortality; 3: an approximately 50% mortality; 5: 100% mortality; details: spray on eggs, 4 days
# From the text: (§1) The test procedures were as follows:
# The plants were allowed to dry thoroughly.
# (§2) Compositions were rated on the basis of percent kill with a rating of 1 indicating no mortality; 3 signifying an approximately 50% mortality and 5 indicating 100% mortality at the indicated dosage.
# [2] = system: Perennial rye grass, crabgrass, red root pigweed, mustard; assay: Preliminary Herbicide Seed Germination Test; details: each rated 1 (no injury) to 5 (no seedlings emerged)
# From the text: The thus-prepared stock suspension contained 0.5 percent by weight of compound. The test concentrations employed in the tests described hereinbelow were obtained by diluting the stock suspension with water. The test procedures were as follows:
# The following seeds were used in this test:
# Crabgrass -- Digitaria san-
# Mustard -- Brassica pincea var.
# Each of above mixtures is rolled separately in 5 gallon containers for approximately one-half hour on ball mill to insure uniform mixing of seeds and soil. For each compound four 3-inch pots are filled with soil to within 11/2 inches of top of pots. To 2 of these pots are added 70 cc. of Mixture I. To the remaining 2 pots are added 70 cc. of Mixture II. The seed-soil mixture is tamped firmly, and the pots are removed to the greenhouse and watered lightly. About 2 hours after planting, 25 milliliters of the test formulation were added to each of 2 pots for each soil-seed mixture; i.e., one replicate of each seed mixture per concentration. An equal volume of a water solution containing acetone and an emulsifier in the same concentration as the herbicidal mixture but without the candidate herbicide is also added to each of the soil-seed mixtures. These pots are used as check or control units. The test compounds are formulated by standard procedure of solution in acetone, addition of an emulsifier, and dilution with water. Tests were conducted on all compositions at low concentration (100 ppm.). Certain compositions were also tested at high concentration (1000 ppm). The pots were held in the greenhouse and watered lightly until results were taken. Ten to twelve days after application of chemical, injury is noted for each species by comparing treated vs. untreated pots. Ratings are made at both the high and the low concentrations (1000 ppm and 100 ppm) according to the following designations:
# 4 = few seedlings emerged and/or very severe stunting
# 3 = moderate reduction in stand and/or moderate stunting
# 2 = very slight reduction in stand and/or slight stunting
# 1 = no injury; seedlings appear no different with respect to stand or growth than untreated controls
# Accordingly, the maximum rating for one test seed species tested at both high and low concentration is 10 and the maximum possible total preemergence rating is 40 (10 for each of the four test seed species). […] In some tests the crabgrass experiment was omitted. In these tests the maximum total rating for species tested at both high and low concentrations is 30 and 15 for species tested only at low concentrations.
# [3] = system: adults and nymphal stages of the two-spotted mite; assay: Mite Foliage Spray Test; format: in vivo, Tetranychus urticae (Koch); parameters: key: 1: no mortality; 3: an approximately 50% mortality; 5: 100% mortality; details: 4 days
# From the text: as §1, §2
# [4] = rating/maximum 15: 100 ppm only, crabgrass omitted
# [5] = rating/maximum 20: 100 ppm only, four species
# [6] = rating/maximum 40: 100 and 1000 ppm, four species, 10-12 days
Compound,Mite Ova rating [1],"Herbicide (total preemergence rating) [2, 4]",Mite Adult rating [3],"Herbicide (total preemergence rating) [2, 5]","Herbicide (total preemergence rating) [2, 6]"
"CCCCC(=O)OC1=C(c2c(C)cc(C)cc2C)C(=O)c2ccccc21 [2-(2',4',6'-Trimethylphenyl)-3-(pentanoyloxy)indone]",5 (100% mortality),15/15,5 (100% mortality),,
"CCc1cccc(CC)c1C1=C(OC(=O)C(C)(C)C)c2ccccc2C1=O [2-(2',6'-Diethylphenyl)-3-(pivaloyloxy)indone]",5 (100% mortality),12/15,5 (100% mortality),,
CC(C)c1ccc(C2=C(OC(=O)C(C)(C)C)c3ccccc3C2=O)cc1 [2-(4'-isopropylphenyl)-3-(pivaloyloxy)indone],1,,1,4/20,
"CCCCCCCCCCCC(=O)OC1=C(c2ccc(C)cc2C)C(=O)c2ccccc21 [2-(2',4'-Dimethylphenyl)-3-(lauroyloxy)indone]",5 (100% mortality),,5 (100% mortality),14/20,
"O=C1C(c2c(Cl)cccc2Cl)=C(OC(=O)c2c(Cl)ccc(Cl)c2Cl)c2ccccc21 [3-(2,3,6-Trichlorobenzoyloxy)-2-(2',6'-dichlorophenyl)indone]",5 (100% mortality),,5 (100% mortality),,20/40
"Cc1cc(C)c(C2=C(OC(=O)COc3ccc(Cl)cc3Cl)c3ccccc3C2=O)c(C)c1 [2-(2',4',6'-Trimethylphenyl)-3-(2,4-dichlorophenoxyacetoxy)indone]",5 (100% mortality),,5 (100% mortality),20/20,
"2-(2',6'-Dichlorophenyl)-4(7)-methyl-3-(pivaloxyloxy)indone",3 (an approximately 50% mortality),,1,,20/40
"CCCCCCCCCCCCCCCCCCOC(=O)OC1=C(c2c(C)cc(C)cc2C)C(=O)c2ccccc21 [2-(2',4',6'-Trimethylphenyl)-3-(octadecyloxycarbonyloxy)indone]",5 (100% mortality),13/15,5 (100% mortality),,
"Cc1cccc(C)c1C1=C(OC(=O)C(C)(C)C)c2ccccc2C1=O [2-(2',6'-Dimethylphenyl)-3-(pivaloyloxy)indone]",5 (100% mortality),,5 (100% mortality),,31/40
2-(2'-Methoxyphenyl)-3-(neodecanoyloxy)indone,1,,1,4/20,
"Cc1cc(C)c(C(=O)OC2=C(c3c(Cl)cccc3Cl)C(=O)c3ccccc32)c(C)c1 [3-(2,4,6-Trimethylbenzoyloxy)-2-(2',6'-dichlorophenyl)indone]",1,6/15,1,,
"Cc1cc(C)c(C2=C(OC(=O)c3ccccc3)c3ccccc3C2=O)c(C)c1 [3-Benzoxyloxy-2-(2',4',6'-trimethylphenyl)indone]",5 (100% mortality),,5 (100% mortality),,31/40
"CCCCN(C)C(=O)OC1=C(c2c(C)cc(C)cc2C)C(=O)c2ccccc21 [2-(2',4',6'-Trimethylphenyl)-3-(N-butyl-N-methylcarbamoyloxy)indone]",1,,1,4/20,
CCCCCCCCCCCCCCCCCC(=O)OC1=C(c2ccccc2)C(=O)c2ccccc21 [2-Phenyl-3-(stearoyloxy)indone],1,,1,4/20,
CC(C)c1ccccc1C1=C(OC(=O)C(C)(C)C)c2ccccc2C1=O [2-(2'-isopropylphenyl)-3-pivaloyloxyindone],,,1,4/20,
